Test results as given in patent US5834518A, “Use of N,N'-dibenzylethylenediamine-N,N'-diacetic acid derivatives as depigmenting agents” (L'Oreal, priority 1996, dated 1998).

Key:
[1] = system: Human melanocytes; test: cytotoxicity to cultured human melanocytes; format: cell-based; conditions: 0.1 mM, 0.25 mM, 0.5 mM and 0.75 mM in human melanocyte culture
[2] = biological target: T1, human melanocyte tyrosinase (Homo sapiens, UniProt P14679); test: dopa-oxidase activity of human melanocyte tyrosinase after culturing melanocytes with compound; format: cell-based; conditions: human melanocytes cultured three days, 5 mM L-dopa, absorbance 475 nm, read-out: Percentage of inhibition
T1 construct: Human melanocytes are prepared and cultured; endogenous in cells; host or cells: cultured human melanocytes
T1 sequence (P14679 19-529): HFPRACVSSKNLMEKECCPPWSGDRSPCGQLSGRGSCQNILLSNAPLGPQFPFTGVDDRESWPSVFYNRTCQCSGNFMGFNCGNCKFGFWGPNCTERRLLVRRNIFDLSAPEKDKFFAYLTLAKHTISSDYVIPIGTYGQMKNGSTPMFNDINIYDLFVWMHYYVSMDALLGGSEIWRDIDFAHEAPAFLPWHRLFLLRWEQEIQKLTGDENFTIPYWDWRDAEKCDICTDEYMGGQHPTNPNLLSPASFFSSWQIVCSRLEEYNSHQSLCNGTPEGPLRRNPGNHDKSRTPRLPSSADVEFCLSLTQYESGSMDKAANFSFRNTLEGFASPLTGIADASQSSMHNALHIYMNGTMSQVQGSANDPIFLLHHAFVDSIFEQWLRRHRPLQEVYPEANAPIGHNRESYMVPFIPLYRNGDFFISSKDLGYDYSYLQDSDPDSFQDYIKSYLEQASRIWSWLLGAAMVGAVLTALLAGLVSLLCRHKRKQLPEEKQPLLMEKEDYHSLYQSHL
Protocol: The effectiveness of the compound of formula (1) as a tyrosinase inhibitor is determined by evaluating its effect on the dopa-oxidase activity of human melanocyte tyrosinase. The compound tested is N,N'-di(3-hydroxybenzyl)ethylenediamine-N,N'-diacetic acid of formula (II): [drawing 5]
Human melanocytes are prepared and cultured and then introduced into media containing different, non-cytotoxic concentrations of the compound of formula (II) (0.1 mM, 0.25 mM, 0.5 mM and 0.75 mM). After three days, the melanocytes are "trypsinized" in a mixture of trypsin/0.05% EDTA/0.02% in a phosphate buffer (50 mM at pH 6.8), washed three times in the phosphate buffer containing 1% (w/v) Triton x-100 and subjected to ultrasound. After centrifugation, samples are taken and mixed with 5 mM L-dopa in phosphate buffer. The tyrosinase activity is evaluated by spectrophotometry by measuring the increase in the absorbance at 475 nm because of the formation of dopachrome from 5 mM dope. The absorbance is read on a microplate reader at 25° C. for 60 min.
The activity of the cellular tyrosinase is measured relative to a standard range prepared with commercial tyrosinase.

inhibition at 100 µM ([2]; 0.1 mM compound): 19%
inhibition at 250 µM ([2]; 0.25 mM compound): 30%
inhibition at 500 µM ([2]; 0.5 mM compound): 33%
inhibition at 750 µM ([2]; 0.75 mM compound): 42%
SMILES: O=C(O)CN(CCN(CC(=O)O)Cc1cccc(O)c1)Cc1cccc(O)c1 [compound of formula (II), N,N'-di(3-hydroxybenzyl)ethylenediamine-N,N'-diacetic acid]
cytotoxicity of the concentrations used [1]: non-cytotoxic
